This is an account of results in patent publication US5317039A, “Cyclopropyl-alanine aryl/alkylsulfide/sulfonyl-terminated amino-diol compounds for treatment of hypertension” (G. D. Searle & Co., priority 1992, dated 1994).

One assay deals with T1, human renin (Homo sapiens, UniProt P00797).
T1 construct: purchased National Institute for Biological Standards, London
T1 sequence (P00797 67-406): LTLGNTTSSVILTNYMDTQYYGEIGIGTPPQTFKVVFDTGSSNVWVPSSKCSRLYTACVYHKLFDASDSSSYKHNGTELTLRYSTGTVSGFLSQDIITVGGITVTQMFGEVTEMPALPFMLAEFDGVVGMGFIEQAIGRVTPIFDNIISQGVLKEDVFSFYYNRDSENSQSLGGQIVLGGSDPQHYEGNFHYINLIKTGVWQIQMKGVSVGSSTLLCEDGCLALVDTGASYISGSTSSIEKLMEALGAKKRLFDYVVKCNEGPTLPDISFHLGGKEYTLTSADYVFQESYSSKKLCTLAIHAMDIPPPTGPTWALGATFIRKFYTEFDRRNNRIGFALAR
Nature of the assay: Human Renin Inhibition in vitro. The note with it: pH 7.4, 2 h at 37° C., human plasma, angiotensin I by radioimmunoassay. In kind it is biochemical. As for the experimental part:
Compounds of Formula I were evaluated as inhibitors of human renin in an in vitro assay, as follows: This human renin inhibition test has been previously described in detail [Papaioannou et al., Clinical and Experimental Hypertension, A7(9), 1243-1257 (1985)]. Human renin was obtained from the National Institute for Biological Standards, London. An incubation mixture was prepared containing the following components: in a total volume of 0.25 mL: 100 mM Tris-acetate buffer at pH 7.4, 25×10^-6 Goldblatt units of renin, 0.05 mL of plasma from human volunteers taking oral contraceptives, 6.0 mM Na-EDTA, 2.4 mM phenylmethyl sulfonyl fluoride, 1.5 mM 8-hydroxyquinoline, 0.4 mg/mL bovine serum albumin (BSA), and 0.024 mg/mL neomycin sulfate. This mixture was incubated for two hours at 37° C. in the presence or absence of renin inhibitors. The produced angiotensin I was determined by radioimmunoassay (New England Nuclear kit). Test compounds to be assayed were dissolved in DMSO and diluted with 100 mM Tris-acetate buffer at pH 7.4 containing 0.5% BSA to the appropriate concentration. The final concentration of organic solvent in the reaction mixture was less than 1%. Control incubations at 37° C. were used to correct for effects of organic solvent on renin activity.

Another assay has as its system pepsin. The note with it: cited from earlier work.
A further assay concerns renin. The note with it: cited from earlier work.
The next assay concerns cathepsin D. As to conditions: cited from earlier work.
The next assay relates to hog renin. The note with it: nephrectomized rats, after injection of hog renin; cited from earlier work.

Square brackets hold non-standard residues; d marks the D form. Peptide text beside a SMILES is read from it. * marks the point of attachment. Sta = CC(C)C[C@H](N)[C@@H](O)CC(=O)O; Isovaleryl = CC(C)CC(=O)*

The IC50 is the concentration that inhibits the measured activity by half. Low values mean higher potency, high ones lower potency.

Consider `CC(C)C[C@H](O)[C@H](O)[C@H](CC1CCCCC1)NC(=O)[C@H](CC1CC1)NC(=O)C(Cc1ccccc1)CS(=O)(=O)C(C)(C)C` (stereo partly drawn) [Example 1], for which the IC50 at human renin came to 0.3 nM. In other words, the sub-nanomolar range.

Compound `CC(C)C[C@H](O)[C@H](O)[C@H](CC1CCCCC1)NC(=O)[C@H](CC1CC1)NC(=O)C(CSC(C)(C)C)Cc1ccccc1` (stereo partly drawn) [Example 2] displayed a half-inhibitory concentration (IC50) against human renin of 2.7 nM.

`CC(C)CC(=O)N[C@H](C(=O)N[C@H](C(=O)N[C@@H](CC(C)C)[C@@H](O)CC(=O)N[C@@H](C)C(=O)N[C@@H](CC(C)C)[C@@H](O)CC(=O)O)C(C)C)C(C)C` [pepstatin] (Isovaleryl-VV[Sta]A[Sta]-OH): the inhibitor of pepsin result in the assay on pepsin is “inhibitor”. Also, the inhibitor of renin result in the assay with renin is “inhibitor”. Moreover, the “inhibitor of cathepsin D” value with cathepsin D is reported as “inhibitor”. The “reduce blood pressure in vivo” value in the assay on hog renin was “reduce blood pressure in vivo”.
